Like-named read-outs stand apart in the source and are kept apart here.
Tests used:
Type in all cases: in vivo, human
ACTH stimulation testing = conditions: majority of Part 2 subjects, 100 mg QD, Baseline and after 8 weeks
Method: 11-deoxycorticosterone levels were unaffected. […] Due to supply chain disruption, the ability to perform ACTH stimulation testing was limited during the first part of the trial. However, the majority of subjects in Part 2 dosed with 100 mg QD, the maximum dose tested, had ACTH-stimulation testing performed at Baseline and after 8 weeks of treatment.

Serum sodium = conditions: active treatment cohorts, Parts 1 and 2
[1] = Pharmacokinetics (plasma concentration, Cmax, AUC, trough); conditions: for concentration at 7 day: human, plasma, oral, Day 7, read-out: Trough plasma concentration, Geo Mean
Description: Pharmacokinetic endpoints of this study are PK parameters, including, of area under the plasma concentration versus time curve (AUC), maximum plasma concentration (Cmax), time to maximum concentration (Tmax), and half-life (t1/2) will be summarized descriptively for Randomization (baseline) and Study Weeks 1, 4, and 8
PK/PD Analysis Set includes all subjects in the SAF who have sufficient data available for the analysis of pharmacokinetic and pharmacodynamic measurements. In the analyses based on PKPD, subjects will be analyzed according to the actual treatment received.

[2] = Clinical laboratory evaluations, vital signs, physical examination, ECG
Description: Safety endpoints of this study are: • (a) Incidence and severity of all spontaneously reported adverse events (AEs) • (b) Changes in vital signs (standing SBP, standing DBP, body temperature, heart rate, and respiratory rate) • (c) Changes in electrocardiogram parameters (including cardiac intervals: PR, QRS, QT, and corrected QT interval using Fridericia's formula) • (d) Changes in clinical laboratory assessments (hematology, chemistry, coagulation, and urinalysis) • (e) Change in office-measured SBP from Study Week 8 (end-of-treatment period to end of follow up (i.e. end of Study Week 12 for Part 1 and end of Study 10 for Part 2).

[3] = system: subjects with uncontrolled hypertension; test: 24-hour ambulatory blood pressure monitoring (ABPM); conditions: for Proportion of subjects with nighttime dip 10-20% in 24-hour systolic ABP / Proportion of subjects with nighttime dip <10% in 24-hour systolic ABP / Proportion of subjects with nighttime dip >20% in 24-hour systolic ABP: Part 1, FAS
Method: Ambulatory blood pressure monitoring was accomplished with an ambulatory blood pressure monitoring device that consists of a blood pressure cuff worn on a subject's arm attached to a small recording device that is typically attached to the subject's belt or waistband. The ABPM device is worn for 24 hours. Throughout that period, the device records the subject's blood pressure at regular intervals, during the subject's routine daily activities and while they are sleeping. The ABPM thus provides a complete record of the subject's blood pressure over a 24-hour period. 24-hour ABPM was measured in the clinic at baseline and Study Week 7. If, for any reason, the ABPM procedure was deemed a failure at the end of Study Week 7, it may have been repeated at Study Week 8 and therefore no imputation was employed regardless of use of rescue medications. Additionally, ABPM was also collected at the end of Study Week 4 in Part 2. If a repeat test was performed, it supersedes the original test results for that visit. Specific derived variables based on ABPM measurements include mean 24-hour, mean Daytime, and mean Nighttime of SBP, DBP, and heart rate. Change from baseline to Week 7 in 24-hour mean SBP (and DBP) based on ABPM will be analyzed using an ANCOVA with a term for treatment group and a baseline mean 24-hour value as a covariate. The nighttime dip is defined as 100% x(mean daytime SBP−mean nighttime SBP)/mean daytime SBP It is expressed as a percentage and is summarized by treatment group and visit using descriptive statistics. In addition, the number and percentage of subjects with nighttime dip in each of the dipper categories (Bloomfield & Park, 2015) is presented by treatment group and visit. The categories are: • (a) <10% • (b) 10-20% inclusive • (c) >20%

[4] = steady state, Day 28, 100 mg QD Part 1

SMILES: CC(=O)N[C@H]1CC[C@H](NC(=O)CN2CCN(c3nncc(-c4ccc(C)cc4)n3)CC2)CC1 [Compound A HBr]
- ACTH-stimulation results (ACTH stimulation testing): no individuals with abnormal ACTH-stimulation results
- Serum sodium levels (Serum sodium): decreased
- Systemic exposure expressed as Cmax or AUC ([1]; across doses): increased with increasing dose
- concentration at 7 day ([1]; 12.5 mg, 12.5 mg BID): 0.0204 µg/mL
- concentration at 7 day ([1]; 12.5 mg, 12.5 mg QD): 0.00655 µg/mL
- concentration at 7 day ([1]; 25 mg, 25 mg BID): 0.0496 µg/mL
- concentration at 7 day ([1]; 50 mg, 50 mg QD): 0.0166 µg/mL
- concentration at 7 day ([1]; 100 mg, 100 mg QD Part 1): 0.0534 µg/mL
- concentration at 7 day ([1]; 100 mg, 100 mg QD Part 2): 0.0351 µg/mL
- AUC0-24, Median [1, 4]: 15 µg·h/mL
- Cmax, Geo Mean [1, 4]: 1.37 µg/mL
- Clinical chemistry, hematology, coagulation, urinalysis changes from baseline to Week 8 ([2]; Part 1 or Part 2): no meaningful changes
- Vital signs, physical examination, ECG parameters ([2]; Parts 1 and 2): no notable findings
- Serum creatinine levels ([2]; active treatment cohorts compared with placebo, Parts 1 and 2): increased
- Proportion of subjects with nighttime dip 10-20% in 24-hour systolic ABP ([3]; 12.5 mg BID, EoT): (31.3) %
- Proportion of subjects with nighttime dip <10% in 24-hour systolic ABP ([3]; 12.5 mg BID, EoT): (68.8) %
- LSM Δ with Placebo, change from baseline in Nighttime Mean DBP (ABPM, ANCOVA) ([3]; 12.5 mg QD, End of Treatment, Part 1, FAS post-hoc): −1.53 mmHg
- Proportion of subjects with nighttime dip 10-20% in 24-hour systolic ABP ([3]; 12.5 mg QD, EoT): (35.7) %
- Proportion of subjects with nighttime dip <10% in 24-hour systolic ABP ([3]; 12.5 mg QD, EoT): (64.3) %
- Proportion of subjects with nighttime dip 10-20% in 24-hour systolic ABP ([3]; 25 mg BID, EoT): (16.7) %
- Proportion of subjects with nighttime dip <10% in 24-hour systolic ABP ([3]; 25 mg BID, EoT): (79.2) %
- Proportion of subjects with nighttime dip >20% in 24-hour systolic ABP ([3]; 25 mg BID, EoT): (4.2) %
- Proportion of subjects with nighttime dip 10-20% in 24-hour systolic ABP ([3]; 50 mg QD, EoT): (21.4) %
- Proportion of subjects with nighttime dip <10% in 24-hour systolic ABP ([3]; 50 mg QD, EoT): (78.6) %
- Proportion of subjects with nighttime dip 10-20% in 24-hour systolic ABP ([3]; 100 mg QD, EoT): (45.8) %
- Proportion of subjects with nighttime dip <10% in 24-hour systolic ABP ([3]; 100 mg QD, EoT): (45.8) %
- Proportion of subjects with nighttime dip >20% in 24-hour systolic ABP ([3]; 100 mg QD, EoT): (8.3) %
- Subjects with nighttime dip 10-20% in 24-hour systolic ABP ([3]; 100 mg QD, EoT, Part 2, FAS): 9 n
- Subjects with nighttime dip <10% in 24-hour systolic ABP ([3]; 100 mg QD, EoT, Part 2, FAS): 18 n
- Subjects with nighttime dip >20% in 24-hour systolic ABP ([3]; 100 mg QD, EoT, Part 2, FAS): 0 n
- Subjects with nighttime dip 10-20% in 24-hour systolic ABP ([3]; 100 mg QD, Week 4, Part 2, FAS): 6 n
- Subjects with nighttime dip <10% in 24-hour systolic ABP ([3]; 100 mg QD, Week 4, Part 2, FAS): 18 n
- Subjects with nighttime dip >20% in 24-hour systolic ABP ([3]; 100 mg QD, Week 4, Part 2, FAS): 1 n

From patent publication US20260053812A1, “METHODS OF TREATING HYPERTENSION WITH A COMBINATION OF AN ALDOSTERONE SYNTHASE INHIBITOR AND A DIURETIC” (Mineralys Therapeutics, Inc., priority 2022, published 2026)
